Measurements published in paper PMC8000592, “Discovery and Optimization of Selective Inhibitors of Meprin α (Part I)” (Pharmaceuticals, 2021).

Legend:
Format in all cases: biochemical
Details in all cases: triplicate, 10-point, 3:1 serial dilution, highest concentration 17.4 µM
MMP14 = molecular target: T1, MMP14 (Homo sapiens, UniProt P50281); assay: MMP assay (Mca-KPLGL-Dpa-AR-NH2 substrate)
T1 construct: purchased R&D Systems 918-MP
Description: (§1) In addition to meprins, we also tested 64 hits against related metzincins (MMP-2, MMP-3, MMP-8, MMP-9, MMP-10, MMP-14, ADAM10, and ADAM17) to ascertain general nonpromiscuity against zinc-dependent proteases.
(§2) All assays followed the same general protocol. […] After 30 min incubation at RT, the reactions were started by addition of 5 µL of 2x solutions of substrate (R&D Systems cat#: ES010, Mca-KPLGL-Dpa-AR-NH2, 20 µM). Reactions were incubated at RT for 1 h, after which the fluorescence was measured using the Synergy H4 multimode microplate reader (Biotek Instruments) (λexcitation = 324 nm, λemission = 390 nm).

MMP8 = molecular target: T2, MMP8 (Homo sapiens, UniProt P22894); assay: MMP assay (Mca-KPLGL-Dpa-AR-NH2 substrate)
T2 construct: purchased R&D Systems 908-MP
Description: as §1, §2

MMP10 = molecular target: T3, MMP10 (Homo sapiens, UniProt P09238); assay: MMP assay (Mca-KPLGL-Dpa-AR-NH2 substrate)
T3 construct: purchased R&D Systems 910-MP
Description: as §1, §2

MMP3 = MMP3 (Homo sapiens, UniProt P08254); assay: MMP assay (Mca-KPLGL-Dpa-AR-NH2 substrate)
Description: (§3) We were able to procure 64 out of 87 selected compounds from commercial sources, which we tested in triplicate, 10-point, 3:1 serial dilution concentration response format starting at the highest concentration of 17.4 µM against both meprin α and meprin β. In addition to meprins, we also tested 64 hits against related metzincins (MMP-2, MMP-3, MMP-8, MMP-9, MMP-10, MMP-14, ADAM10, and ADAM17) to ascertain general nonpromiscuity against zinc-dependent proteases.
(§4) All assays followed the same general protocol. A 5 µL portion of 2 × enzyme solution (5 nM) in assay buffer (50 mM Tricine, 50 mM NaCl, 10 mM CaCl2, 0.05% Brij-35, pH 7.5) was added to solid bottom black 384 plates (Nunc, cat# 264705). Next, test compounds and pharmacological controls were added to corresponding wells using a 384-pin tool device (V&P Scientific, San Diego, CA, USA). After 30 min incubation at RT, the reactions were started by addition of 5 µL of 2x solutions of substrate (R&D Systems cat#: ES010, Mca-KPLGL-Dpa-AR-NH2, 20 µM). Reactions were incubated at RT for 1 h, after which the fluorescence was measured using the Synergy H4 multimode microplate reader (Biotek Instruments) (λexcitation = 324 nm, λemission = 390 nm).

MMP2 = molecular target: T4, MMP2 (Homo sapiens, UniProt P08253); assay: MMP assay (Mca-KPLGL-Dpa-AR-NH2 substrate)
T4 construct: purchased R&D Systems 902-MP
T4 sequence (P08253 110-660): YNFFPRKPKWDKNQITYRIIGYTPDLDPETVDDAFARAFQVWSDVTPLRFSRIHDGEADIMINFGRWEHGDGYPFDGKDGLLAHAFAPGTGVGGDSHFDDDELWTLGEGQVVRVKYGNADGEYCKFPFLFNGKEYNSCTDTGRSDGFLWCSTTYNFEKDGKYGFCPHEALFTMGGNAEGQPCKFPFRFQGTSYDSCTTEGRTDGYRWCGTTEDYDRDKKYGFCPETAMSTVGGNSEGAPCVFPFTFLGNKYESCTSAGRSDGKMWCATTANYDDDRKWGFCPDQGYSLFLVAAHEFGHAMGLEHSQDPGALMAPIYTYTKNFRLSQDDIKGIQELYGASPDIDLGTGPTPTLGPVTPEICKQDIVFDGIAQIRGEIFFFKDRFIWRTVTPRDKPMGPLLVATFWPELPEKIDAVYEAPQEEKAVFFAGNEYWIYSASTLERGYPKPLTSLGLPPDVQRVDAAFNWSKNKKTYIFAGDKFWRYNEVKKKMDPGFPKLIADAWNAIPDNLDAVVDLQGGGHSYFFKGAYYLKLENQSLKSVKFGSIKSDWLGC
Description: as §3, §4

MMP9 = molecular target: T5, MMP9 (Homo sapiens, UniProt P14780); assay: MMP assay (Mca-KPLGL-Dpa-AR-NH2 substrate)
T5 construct: purchased R&D Systems 911-MP
Description: as §3, §4

ADAM17 = molecular target: T6, ADAM17 (Homo sapiens, UniProt P78536); assay: ADAM17 assay (Mca-KPLGL-Dpa-AR-NH2 substrate)
T6 construct: purchased R&D Systems 930-ADB
Description: as §3
Both assays followed the same general protocol. A 2.5 µL portion of 2 × enzyme solution (20 nM) in assay buffer (10 mM HEPES, 0.001% Brij-35, pH 7.5) was added to solid bottom black 1536 plates (Greiner, cat# 789075). Next, test compounds and pharmacological controls were added to corresponding wells using a 1536 pin tool device (V&P Scientific, San Diego, CA, USA). After 30 min incubation at RT, the reactions were started by addition of 2.5 µL of 2x solutions of substrate (R&D Systems cat#: ES010, Mca-KPLGL-Dpa-AR-NH2, 20 µM). Reactions were incubated at RT for 2 h, after which the fluorescence was measured using a PerkinElmer Viewlux multimode microplate imager (λexcitation = 324 nm, λemission = 390 nm). Final concentration of test compounds in assays was 7.0 µM.

T5 sequence (P14780 94-707): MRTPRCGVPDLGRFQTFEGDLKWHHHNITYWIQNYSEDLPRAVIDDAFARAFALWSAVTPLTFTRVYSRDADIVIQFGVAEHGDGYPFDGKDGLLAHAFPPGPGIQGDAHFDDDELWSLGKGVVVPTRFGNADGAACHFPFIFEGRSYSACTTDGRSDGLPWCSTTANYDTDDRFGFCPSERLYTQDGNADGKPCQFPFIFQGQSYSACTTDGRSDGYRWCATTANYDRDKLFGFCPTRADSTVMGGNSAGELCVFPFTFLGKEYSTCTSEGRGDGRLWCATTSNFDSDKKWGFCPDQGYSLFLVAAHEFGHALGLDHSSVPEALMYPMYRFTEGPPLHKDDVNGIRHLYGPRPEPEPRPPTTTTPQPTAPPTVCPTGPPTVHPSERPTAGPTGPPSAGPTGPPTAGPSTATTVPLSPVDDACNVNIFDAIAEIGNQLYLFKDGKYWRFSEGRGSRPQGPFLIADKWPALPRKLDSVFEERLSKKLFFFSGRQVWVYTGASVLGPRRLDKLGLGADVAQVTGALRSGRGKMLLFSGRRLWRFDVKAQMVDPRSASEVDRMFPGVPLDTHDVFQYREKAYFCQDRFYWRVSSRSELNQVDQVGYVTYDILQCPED
T6 sequence (P78536 215-824): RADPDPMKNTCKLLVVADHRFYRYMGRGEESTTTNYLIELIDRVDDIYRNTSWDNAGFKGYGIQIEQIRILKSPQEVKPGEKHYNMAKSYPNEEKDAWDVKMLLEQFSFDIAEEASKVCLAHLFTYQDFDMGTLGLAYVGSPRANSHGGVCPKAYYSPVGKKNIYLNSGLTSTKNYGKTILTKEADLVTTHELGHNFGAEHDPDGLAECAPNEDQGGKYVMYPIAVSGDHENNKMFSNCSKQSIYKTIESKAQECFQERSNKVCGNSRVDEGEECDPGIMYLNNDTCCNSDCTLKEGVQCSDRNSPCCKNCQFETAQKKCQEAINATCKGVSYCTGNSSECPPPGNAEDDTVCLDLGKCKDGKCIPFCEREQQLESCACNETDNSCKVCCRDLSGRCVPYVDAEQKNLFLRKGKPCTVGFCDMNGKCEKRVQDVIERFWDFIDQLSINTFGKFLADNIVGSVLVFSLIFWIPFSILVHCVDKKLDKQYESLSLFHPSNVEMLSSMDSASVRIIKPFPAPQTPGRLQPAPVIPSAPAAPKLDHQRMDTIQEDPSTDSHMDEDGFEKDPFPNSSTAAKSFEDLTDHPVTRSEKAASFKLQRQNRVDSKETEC
T3 sequence (P09238 99-476): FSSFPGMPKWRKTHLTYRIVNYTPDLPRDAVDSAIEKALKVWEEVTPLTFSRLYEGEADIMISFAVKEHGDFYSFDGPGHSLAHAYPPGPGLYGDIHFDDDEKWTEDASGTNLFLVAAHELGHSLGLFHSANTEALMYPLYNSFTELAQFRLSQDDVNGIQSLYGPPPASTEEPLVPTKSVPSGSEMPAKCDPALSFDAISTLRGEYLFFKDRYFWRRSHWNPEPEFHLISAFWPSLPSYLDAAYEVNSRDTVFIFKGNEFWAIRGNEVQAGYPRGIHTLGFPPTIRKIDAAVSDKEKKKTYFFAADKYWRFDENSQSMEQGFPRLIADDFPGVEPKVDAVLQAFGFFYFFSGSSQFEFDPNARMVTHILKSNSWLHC
MMP3, sequence (P08254 100-477, species assumed): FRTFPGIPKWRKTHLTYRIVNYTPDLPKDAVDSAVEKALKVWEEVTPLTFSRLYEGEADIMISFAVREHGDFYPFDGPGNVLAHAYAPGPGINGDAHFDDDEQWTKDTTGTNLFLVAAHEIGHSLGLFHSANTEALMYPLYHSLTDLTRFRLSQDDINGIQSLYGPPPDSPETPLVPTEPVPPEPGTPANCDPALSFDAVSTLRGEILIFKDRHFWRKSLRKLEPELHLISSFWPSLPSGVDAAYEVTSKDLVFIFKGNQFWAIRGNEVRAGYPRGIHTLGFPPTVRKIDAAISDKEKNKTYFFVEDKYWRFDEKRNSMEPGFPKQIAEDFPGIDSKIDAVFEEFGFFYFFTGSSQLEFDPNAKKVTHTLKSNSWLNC
T2 sequence (P22894 101-467): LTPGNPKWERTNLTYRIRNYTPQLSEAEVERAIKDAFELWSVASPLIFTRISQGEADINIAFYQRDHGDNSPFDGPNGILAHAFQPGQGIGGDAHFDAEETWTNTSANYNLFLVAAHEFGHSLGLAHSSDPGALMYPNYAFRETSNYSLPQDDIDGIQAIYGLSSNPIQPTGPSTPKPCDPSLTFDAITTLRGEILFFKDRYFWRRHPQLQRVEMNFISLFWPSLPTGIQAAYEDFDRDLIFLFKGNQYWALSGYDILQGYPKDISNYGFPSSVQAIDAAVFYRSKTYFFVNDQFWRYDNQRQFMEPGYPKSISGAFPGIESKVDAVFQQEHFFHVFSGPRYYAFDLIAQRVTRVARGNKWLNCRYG

| Compound | IC50 (MMP14) [µM] | IC50 (MMP8) [µM] | IC50 (MMP10) [µM] | IC50 (MMP3) [µM] | IC50 (MMP2) [µM] | IC50 (MMP9) [µM] | IC50 (ADAM17) [µM] |
| --- | --- | --- | --- | --- | --- | --- | --- |
| O=C(CSc1nnc(NC(=O)c2ccccc2)s1)NO [Compound 19847] | > 17 | > 17 | > 17 | > 17 | 2.87 | > 17 | > 17 |
| O=C(CSc1nnc(NC(=O)COc2ccccc2)s1)NO [Compound 19848] | > 17 | > 17 | > 17 | > 17 | > 17 | > 17 | > 17 |
| COc1cc(OC)cc(C(=O)CNc2nnc(SCC(=O)NO)s2)c1 [Compound 19849] | > 17 | > 17 | > 17 | > 17 | > 17 | > 17 | 8.01 |
| COc1ccc(-n2c(CSc3ncccn3)nnc2SCC(=O)NO)cc1 [Compound 19855] | > 17 | > 17 | > 17 | > 17 | > 17 | > 17 | > 17 |
| O=C(CCN(Cc1cccs1)S(=O)(=O)c1ccc([N+](=O)[O-])cc1)NO [Compound 162799] | > 17 | > 17 | > 17 | > 17 | > 17 | > 17 | > 17 |
| O=C(CCN(Cc1ccccc1)S(=O)(=O)c1ccc(F)cc1)NO [Compound 162808] | > 17 | > 17 | > 17 | > 17 | 17 | > 17 | > 17 |
| O=C(COc1ccc(Cl)cc1Cl)NO [Compound 1596857] | > 17 | > 17 | > 17 | > 17 | > 17 | > 17 | > 17 |
| O=[N+]([O-])c1ccc(CN2CCC3(CCc4ccccc43)CC2)o1 [SR207820] | > 17 | > 17 | > 17 | 17 | > 17 | > 17 | > 17 |
| O=C(c1ccc(C(=O)O)c([N+](=O)[O-])c1)c1ccc(C(=O)O)c([N+](=O)[O-])c1 [SR355996] | > 17 | > 17 | > 17 | > 17 | > 17 | 17 | > 17 |
| CSc1nnc2c(n1)OC(c1ccc([N+](=O)[O-])o1)Nc1ccccc1-2 (stereo not shown) [SR412882] | 10.5 | > 17 | 9.7 | 15 | > 17 | > 17 | 17 |
